What is called IC50 is the concentration that gives 50% inhibition.

Drawing on patent US11759462B2, “Spirocyclic compounds as tryptophan hydroxylase inhibitors” (priority 2013, dated 2023), this text covers IC50 for 20 molecules.

The target of this experiment is T1, Recombinant human TPH1 (MBP tagged) (Homo sapiens, UniProt P17752).
T1 construct: cloning full length human TPH1 cDNA in to a bacterial pMAL-c5E expression vector; made in house; host or cells: E. coli BL21 (DE3)
T1 sequence (P17752 1-444): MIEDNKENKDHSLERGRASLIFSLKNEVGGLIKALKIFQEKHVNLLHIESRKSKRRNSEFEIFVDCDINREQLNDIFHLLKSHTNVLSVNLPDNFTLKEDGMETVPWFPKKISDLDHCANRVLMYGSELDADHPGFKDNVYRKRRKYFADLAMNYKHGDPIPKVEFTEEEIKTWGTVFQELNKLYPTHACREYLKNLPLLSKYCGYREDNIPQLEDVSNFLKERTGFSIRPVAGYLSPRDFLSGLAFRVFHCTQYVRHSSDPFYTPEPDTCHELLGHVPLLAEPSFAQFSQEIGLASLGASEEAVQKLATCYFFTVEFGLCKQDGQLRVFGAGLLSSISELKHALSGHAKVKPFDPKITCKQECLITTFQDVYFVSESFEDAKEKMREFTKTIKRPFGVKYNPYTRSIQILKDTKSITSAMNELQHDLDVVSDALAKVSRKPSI
Briefly: TPH1 in vitro inhibition assay (kinetic fluorescence). As to conditions: read-out: TPH1 Range (TPH1 inhibition IC50). Format: biochemical. Put shortly:
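Final mix: 15 nM MBP-TPH1, 30 μM Trp, 36 μM 6-methyltetrahydropterin, 25 μM ferrous ammonium sulfate, 50 mM MES pH 7.1, 1% DMSO, room temperature.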

Take `CCOC(=O)c1ccc([C@@H](Oc2cc(N3CCC4(CC3)CN[C@H](C(=O)O)C4)nc(N)n2)C(F)(F)F)c(-n2ccc(C)n2)c1` [Example 17, (S)-8-(2-amino-6-((R)-1-(4-(ethoxycarbonyl)-2-(3-methyl-H-pyrazol-1-yl)phenyl)-2,2,2-trifluoroethoxy)pyrimidin-4-yl)-2,8-diazaspiro[4.5]decane-3-carboxylic acid]: the 50% inhibitory concentration (IC50) is below 50 nM.
On to `Cc1ccn(-c2cc(C(=O)OC(C)(C(F)(F)F)C(F)(F)F)ccc2[C@@H](Oc2cc(N3CCC4(CC3)CN[C@H](C(=O)O)C4)nc(N)n2)C(F)(F)F)n1` [Example 18a, (S)-8-(2-amino-6-((R)-2,2,2-trifluoro-1-(4-(((1,1,1,3,3,3-hexafluoro-2-methylpropan-2-yl)oxy)carbonyl)-2-(3-methyl-1H-pyrazol-1-yl)phenyl)ethoxy)pyrimidin-4-yl)-2,8-diazaspiro[4.5]decane-3-carboxylic acid], for which the IC50 is 50 to 300 nM.
On to `CCCOC(=O)c1ccc([C@@H](Oc2cc(N3CCC4(CC3)CN[C@H](C(=O)O)C4)nc(N)n2)C(F)(F)F)c(-n2ccc(C)n2)c1` [Example 18b, (S)-8-(2-amino-6-((R)-2,2,2-trifluoro-1-(2-(3-methyl-1H-pyrazol-1-yl)-4-(propoxycarbonyl)phenyl)ethoxy)pyrimidin-4-yl)-2,8-diazaspiro[4.5]decane-3-carboxylic acid], for which the IC50 was below 50 nM.
With `CCCCOC(=O)c1ccc([C@@H](Oc2cc(N3CCC4(CC3)CN[C@H](C(=O)O)C4)nc(N)n2)C(F)(F)F)c(-n2ccc(C)n2)c1` [Example 18c, (S)-8-(2-amino-6-((R)-1-(4-(butoxycarbonyl)-2-(3-methyl-1H-pyrazol-1-yl)phenyl)-2,2,2-trifluoroethoxy)pyrimidin-4-yl)-2,8-diazaspiro[4.5]decane-3-carboxylic acid] the figure was below 50 nM.
As to `Cc1ccn(-c2cc(C(=O)OC(C)(C)C)ccc2[C@@H](Oc2cc(N3CCC4(CC3)CN[C@H](C(=O)O)C4)nc(N)n2)C(F)(F)F)n1` [Example 18d, (S)-8-(2-amino-6-((R)-1-(4-(tert-butoxycarbonyl)-2-(3-methyl-1H-pyrazol-1-yl)phenyl)-2,2,2-trifluoroethoxy)pyrimidin-4-yl)-2,8-diazaspiro[4.5]decane-3-carboxylic acid], the IC50 is below 50 nM.
On to `Cc1ccn(-c2cc(C(=O)OCC(C)C)ccc2[C@@H](Oc2cc(N3CCC4(CC3)CN[C@H](C(=O)O)C4)nc(N)n2)C(F)(F)F)n1` [Example 18e, (S)-8-(2-amino-6-((R)-2,2,2-trifluoro-1-(4-(isobutoxycarbonyl)-2-(3-methyl-1H-pyrazol-1-yl)phenyl)ethoxy)pyrimidin-4-yl)-2,8-diazaspiro[4.5]decane-3-carboxylic acid], for which the concentration for half-maximal inhibition (IC50) is below 50 nM.
`Cc1ccn(-c2cc(C(=O)OC3CCCC3)ccc2[C@@H](Oc2cc(N3CCC4(CC3)CN[C@H](C(=O)O)C4)nc(N)n2)C(F)(F)F)n1` [Example 18f, (S)-8-(2-amino-6-((R)-1-(4-((cyclopentyloxy)carbonyl)-2-(3-methyl-1H-pyrazol-1-yl)phenyl)-2,2,2-trifluoroethoxy)pyrimidin-4-yl)-2,8-diazaspiro[4.5]decane-3-carboxylic acid]: the IC50 was below 50 nM.
As for `C=Cc1ccc(-n2ccc(C)n2)c([C@@H](Oc2cc(N3CCC4(CC3)CN[C@H](C(=O)O)C4)nc(N)n2)C(F)(F)F)c1` [Example 19a, (S)-8-(2-amino-6-((R)-2,2,2-trifluoro-1-(2-(3-methyl-1H-pyrazol-1-yl)-5-vinylphenyl)ethoxy)pyrimidin-4-yl)-2,8-diazaspiro[4.5]decane-3-carboxylic acid], the half-maximal inhibitory concentration (IC50) was below 50 nM.
As to `C/C=C/c1ccc(-n2ccc(C)n2)c([C@@H](Oc2cc(N3CCC4(CC3)CN[C@H](C(=O)O)C4)nc(N)n2)C(F)(F)F)c1` [Example 19b, (S)-8-(2-amino-6-((R)-2,2,2-trifluoro-1-(2-(3-methyl-1H-pyrazol-1-yl)-5-((E)-prop-1-en-1-yl)phenyl)ethoxy)pyrimidin-4-yl)-2,8-diazaspiro[4.5]decane-3-carboxylic acid], the IC50 is below 50 nM.
With `CC/C=C/c1ccc(-n2ccc(C)n2)c([C@@H](Oc2cc(N3CCC4(CC3)CN[C@H](C(=O)O)C4)nc(N)n2)C(F)(F)F)c1` [Example 19c, (S)-8-(2-amino-6-((R)-1-(5-((E)-but-1-en-1-yl)-2-(3-methyl-1H-pyrazol-1-yl)phenyl)-2,2,2-trifluoroethoxy)pyrimidin-4-yl)-2,8-diazaspiro[4.5]decane-3-carboxylic acid] the figure was below 50 nM; with `Cc1ccn(-c2ccc(/C=C/C(=O)O)cc2[C@@H](Oc2cc(N3CCC4(CC3)CN[C@H](C(=O)O)C4)nc(N)n2)C(F)(F)F)n1` [Example 19d, (S)-8-(2-amino-6-((R)-1-(5-((E)-2-carboxyvinyl)-2-(3-methyl-1H-pyrazol-1-yl)phenyl)-2,2,2-trifluoroethoxy)pyrimidin-4-yl)-2,8-diazaspiro[4.5]decane-3-carboxylic acid], 50 to 300 nM; with `Cc1ccn(-c2ccc(-c3ccc(C)c(C)c3)cc2[C@@H](Oc2cc(N3CCC4(CC3)CN[C@H](C(=O)O)C4)nc(N)n2)C(F)(F)F)n1` [Example 19e, (S)-8-(2-amino-6-((R)-1-(3′,4′-dimethyl-4-(3-methyl-1H-pyrazol-1-yl)-[1,1′-biphenyl]-3-yl)-2,2,2-trifluoroethoxy)pyrimidin-4-yl)-2,8-diazaspiro[4.5] decane-3-carboxylic acid], below 50 nM.
With `Cc1ccn(-c2ccc(-c3cccc(C(=O)O)c3)cc2[C@@H](Oc2cc(N3CCC4(CC3)CN[C@H](C(=O)O)C4)nc(N)n2)C(F)(F)F)n1` [Example 19f, (S)-8-(2-amino-6-((R)-1-(3′-carboxy-4-(3-methyl-1H-pyrazol-1-yl)-[1,1′-biphenyl]-3-yl)-2,2,2-trifluoroethoxy)pyrimidin-4-yl)-2,8-diazaspiro[4.5] decane-3-carboxylic acid] the figure was below 50 nM.
`Cc1ccn(-c2ccc(-c3ccc(C(=O)O)cc3)cc2[C@@H](Oc2cc(N3CCC4(CC3)CN[C@H](C(=O)O)C4)nc(N)n2)C(F)(F)F)n1` [Example 19g, (S)-8-(2-amino-6-((R)-1-(4′-carboxy-4-(3-methyl-1H-pyrazol-1-yl)-[1,1′-biphenyl]-3-yl)-2,2,2-trifluoroethoxy)pyrimidin-4-yl)-2,8-diazaspiro[4.5] decane-3-carboxylic acid]: the IC50 is below 50 nM.
With `Cc1ccn(-c2ccc(-c3cccc(/C=C/C(=O)O)c3)cc2[C@@H](Oc2cc(N3CCC4(CC3)CN[C@H](C(=O)O)C4)nc(N)n2)C(F)(F)F)n1` [Example 19h, (S)-8-(2-amino-6-((R)-1-(3′-((E)-2-carboxyvinyl)-4-(3-methyl-1H-pyrazol-1-yl)-[1,1′-biphenyl]-3-yl)-2,2,2-trifluoroethoxy)pyrimidin-4-yl)-2,8-diazaspiro[4.5] decane-3-carboxylic acid] the figure was below 50 nM; with `Cc1ccn(-c2ccc(-c3ccc(/C=C/C(=O)O)cc3)cc2[C@@H](Oc2cc(N3CCC4(CC3)CN[C@H](C(=O)O)C4)nc(N)n2)C(F)(F)F)n1` [Example 19i, (S)-8-(2-amino-6-((R)-1-(4′-((E)-2-carboxyvinyl)-4-(3-methyl-1H-pyrazol-1-yl)-[1,1′-biphenyl]-3-yl)-2,2,2-trifluoroethoxy)pyrimidin-4-yl)-2,8-diazaspiro[4.5] decane-3-carboxylic acid], below 50 nM.
For `Cc1ccn(-c2ccc(-c3cccc(CCC(=O)O)c3)cc2[C@@H](Oc2cc(N3CCC4(CC3)CN[C@H](C(=O)O)C4)nc(N)n2)C(F)(F)F)n1` [Example 19j, (S)-8-(2-amino-6-((R)-1-(3′-(2-carboxyethyl)-4-(3-methyl-1H-pyrazol-1-yl)-[1,1′-biphenyl]-3-yl)-2,2,2-trifluoroethoxy)pyrimidin-4-yl)-2,8-diazaspiro[4.5] decane-3-carboxylic acid], the half-inhibitory concentration (IC50) was below 50 nM.
With `Cc1ccn(-c2ccc(-c3ccc(CCC(=O)O)cc3)cc2[C@@H](Oc2cc(N3CCC4(CC3)CN[C@H](C(=O)O)C4)nc(N)n2)C(F)(F)F)n1` [Example 19k, (S)-8-(2-amino-6-((R)-1-(4′-(2-carboxyethyl)-4-(3-methyl-1H-pyrazol-1-yl)-[1,1′-biphenyl]-3-yl)-2,2,2-trifluoroethoxy)pyrimidin-4-yl)-2,8-diazaspiro[4.5] decane-3-carboxylic acid], the IC50 is below 50 nM.
As for `Cc1ccn(-c2ccc(-c3ccc(CO)c(C)c3)cc2[C@@H](Oc2cc(N3CCC4(CC3)CN[C@H](C(=O)O)C4)nc(N)n2)C(F)(F)F)n1` [Example 19l, (S)-8-(2-amino-6-((R)-2,2,2-trifluoro-1-(4′-(hydroxymethyl)-3′-methyl-4-(3-methyl-1H-pyrazol-1-yl)-[1,1′-biphenyl]-3-yl)ethoxy)pyrimidin-4-yl)-2,8-diazaspiro[4.5]decane-3-carboxylic acid], the concentration for half-maximal inhibition (IC50) was below 50 nM.
With `Cc1ccn(-c2ccc(-c3ccc(C)c(CO)c3)cc2[C@@H](Oc2cc(N3CCC4(CC3)CN[C@H](C(=O)O)C4)nc(N)n2)C(F)(F)F)n1` [Example 19m, (S)-8-(2-amino-6-((R)-2,2,2-trifluoro-1-(3′-(hydroxymethyl)-4′-methyl-4-(3-methyl-1H-pyrazol-1-yl)-[1,1′-biphenyl]-3-yl)ethoxy)pyrimidin-4-yl)-2,8-diazaspiro[4.5]decane-3-carboxylic acid] the figure was below 50 nM.
